Experimental data reported in PubChem BioAssay (NCI).
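All cell lines were grown in 96-well plates and treated with compound for 48 hours. TGI marks complete inhibition of growth.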

Assays:
Test in all cases: NCI anticancer screen, dose series, 48 h
[1] = tested on: SK-MEL-5 melanoma
[2] = tested on: DU-145 prostate
[3] = tested on: MOLT-4 leukemia
[4] = tested on: K-562 leukemia
[5] = tested on: UACC-62 melanoma
[6] = tested on: BT-549 breast
[7] = tested on: SK-OV-3 ovarian
[8] = tested on: OVCAR-4 ovarian
[9] = tested on: OVCAR-8 ovarian
[10] = tested on: KM12 colon
[11] = tested on: HCT-15 colon
[12] = tested on: M14 melanoma
[13] = tested on: SNB-75 CNS
[14] = tested on: SK-MEL-2 melanoma
[15] = tested on: OVCAR-3 ovarian
[16] = tested on: SF-295 CNS
[17] = tested on: COLO 205 colon
[18] = tested on: RPMI-8226 leukemia

`COC(=O)c1sc(=S)sc1SCc1ccc(CSc2sc(=S)sc2C(=O)OC)cc1` was tested, and the TGI [1] was > 100 µM, the TGI [2] was > 100 µM and the TGI [3] was > 100 µM. For the same molecule, the TGI [4] was > 100 µM, the TGI [5] was > 100 µM and the TGI [6] was > 100 µM. The TGI [7] was > 100 µM, the TGI [8] was > 100 µM and the TGI [9] was > 100 µM. The TGI [10] was > 100 µM, the TGI [11] was > 100 µM and the TGI [12] was > 100 µM. The TGI [13] was > 100 µM, the TGI [14] was > 100 µM and the TGI [15] was > 100 µM. The TGI [16] was > 100 µM and the TGI [17] was > 100 µM.
With `CN(C)CCCNc1ccc([N+](=O)[O-])c2nc3ccccc3c(N)c12` the TGI [1] was 2.44 µM, the TGI [2] was 1.75 µM and the TGI [3] was 3.42 µM. The TGI [4] was 2.27 µM, the TGI [18] was 2.14 µM and the TGI [5] was > 10 µM. For the same molecule, the TGI [6] was 4.75 µM, the TGI [7] was 0.987 µM and the TGI [8] was 0.595 µM. For the same molecule, the TGI [10] was 1.53 µM, the TGI [11] was 1.7 µM and the TGI [12] was 1.95 µM. It also gave a TGI [14] of 2.69 µM, a TGI [15] of 5.05 µM and a TGI [16] of 1.53 µM.
In the case of `Cc1ccc(NC2=CC(=O)C(NO)c3ccccc32)cc1` (stereo unspecified), the TGI [1] is reported as 2.92 µM, the TGI [2] is reported as 7.41 µM and the TGI [3] is reported as 6.23 µM. It also gave a TGI [5] of 4 µM, a TGI [6] of 26.4 µM and a TGI [7] of 46.6 µM. For the same molecule, the TGI [8] was 9.71 µM, the TGI [9] was 4.41 µM and the TGI [10] was 20.2 µM. It also gave a TGI [11] of 10.4 µM, a TGI [12] of 11.4 µM and a TGI [13] of 22.2 µM. It also gave a TGI [14] of 8.99 µM, a TGI [15] of 5.57 µM and a TGI [16] of 15.4 µM. The TGI [17] was 8.72 µM.
`CC[C@]1(Cc2ccc(OC)c(OC)c2)C=[N+]([O-])O[C@H](OC2CCCC2(c2ccccc2)c2ccccc2)[C@@H]1OC(C)=O` (stereo partly specified) was tested, and the TGI [1] was 11.9 µM, the TGI [2] was 13.1 µM and the TGI [3] was > 23.8 µM. For the same molecule, the TGI [4] was > 27.7 µM, the TGI [5] was 12.7 µM and the TGI [6] was 27.9 µM. It also gave a TGI [7] of 50.2 µM, a TGI [8] of 25.5 µM and a TGI [9] of 7.98 µM. It also gave a TGI [10] of 8.89 µM, a TGI [11] of 15.8 µM and a TGI [12] of 14.9 µM. For the same molecule, the TGI [13] was 9.62 µM, the TGI [14] was 14.7 µM and the TGI [15] was 4.13 µM. It also gave a TGI [16] of 17.5 µM and a TGI [17] of 12 µM.
In the case of `O=C1NC(=S)N/C1=C\c1ccc(Br)s1`, the TGI [1] is reported as > 100 µM, the TGI [2] is reported as > 100 µM and the TGI [3] is reported as > 100 µM. For the same molecule, the TGI [4] was > 100 µM, the TGI [18] was 81.3 µM and the TGI [5] was > 100 µM. For the same molecule, the TGI [6] was > 100 µM, the TGI [7] was > 100 µM and the TGI [8] was > 100 µM. The TGI [10] was > 100 µM, the TGI [11] was > 100 µM and the TGI [14] was > 100 µM. The TGI [15] was > 100 µM, the TGI [16] was > 100 µM and the TGI [17] was > 100 µM.
For `COc1ccc(-n2cnc3c2NC(C)(C)N=C3C(N)=O)c(OC)c1`, the TGI [1] was > 100 µM, the TGI [2] was > 100 µM and the TGI [4] was > 100 µM. For the same molecule, the TGI [18] was > 100 µM, the TGI [5] was > 100 µM and the TGI [7] was > 100 µM. For the same molecule, the TGI [8] was > 100 µM, the TGI [9] was > 100 µM and the TGI [10] was > 100 µM. The TGI [11] was > 100 µM, the TGI [12] was > 100 µM and the TGI [13] was > 100 µM. The TGI [15] was > 100 µM, the TGI [16] was > 100 µM and the TGI [17] was > 100 µM.
`CC1=NN(c2nc(N)nc(CSc3nc4n(c(=S)n3)CCN4)n2)C(C)(C)C1` was tested, and the TGI [1] was > 100 µM, the TGI [3] was > 100 µM and the TGI [4] was > 100 µM. The TGI [18] was > 100 µM, the TGI [5] was > 100 µM and the TGI [6] was > 100 µM. For the same molecule, the TGI [7] was 71.6 µM, the TGI [8] was > 100 µM and the TGI [9] was 47.3 µM. For the same molecule, the TGI [10] was > 100 µM, the TGI [11] was > 100 µM and the TGI [12] was > 100 µM. The TGI [13] was 39.7 µM, the TGI [14] was 62.6 µM and the TGI [16] was 74 µM. The TGI [17] was > 100 µM.
For `CCN(CC)/C(Sc1ccccc1)=C(\C(Cl)=C(Cl)Cl)[N+](=O)[O-]`, the TGI [1] was 29 µM, the TGI [2] was 34.9 µM and the TGI [3] was 31.3 µM. It also gave a TGI [4] of 31.9 µM, a TGI [5] of 43.7 µM and a TGI [6] of 38.1 µM. The TGI [7] was 73.1 µM, the TGI [8] was > 100 µM and the TGI [9] was 35.6 µM. It also gave a TGI [10] of 36.3 µM, a TGI [11] of 34.8 µM and a TGI [12] of 37.5 µM. For the same molecule, the TGI [13] was 57.3 µM, the TGI [15] was 32.7 µM and the TGI [16] was 37.1 µM. For the same molecule, the TGI [17] was 31.5 µM.
With `S=C1N(/N=C/c2c3ccccc3cc3ccccc23)C(=Nc2ccccc2)C(=Nc2ccccc2)N1c1ccccc1` the TGI [1] was > 100 µM, the TGI [2] was > 100 µM and the TGI [3] was > 100 µM. For the same molecule, the TGI [4] was > 100 µM, the TGI [18] was > 100 µM and the TGI [5] was > 100 µM. The TGI [6] was > 100 µM, the TGI [7] was > 100 µM and the TGI [9] was > 100 µM. For the same molecule, the TGI [10] was > 100 µM, the TGI [11] was > 100 µM and the TGI [12] was > 100 µM. The TGI [14] was > 100 µM, the TGI [15] was > 100 µM and the TGI [16] was > 100 µM. For the same molecule, the TGI [17] was > 100 µM.
`CCSc1n/c(=C\c2ccco2)c2nncn12` was tested, and the TGI [1] was > 100 µM, the TGI [2] was > 100 µM and the TGI [3] was > 100 µM. For the same molecule, the TGI [4] was > 100 µM, the TGI [18] was > 100 µM and the TGI [5] was > 100 µM. For the same molecule, the TGI [7] was > 100 µM, the TGI [9] was > 100 µM and the TGI [10] was > 100 µM. For the same molecule, the TGI [11] was > 100 µM, the TGI [12] was > 100 µM and the TGI [13] was > 100 µM. The TGI [14] was > 100 µM, the TGI [15] was > 100 µM and the TGI [16] was > 100 µM. The TGI [17] was > 100 µM.
`CN1CNc2nc(N)n(C)c(=O)c2C1` was tested, and the TGI [2] was > 10 µM, the TGI [3] was > 10 µM and the TGI [4] was > 10 µM. The TGI [5] was > 10 µM, the TGI [6] was > 10 µM and the TGI [7] was > 10 µM. For the same molecule, the TGI [8] was > 10 µM, the TGI [9] was > 10 µM and the TGI [10] was > 10 µM. The TGI [11] was > 10 µM, the TGI [12] was > 10 µM and the TGI [13] was > 10 µM. The TGI [14] was > 10 µM, the TGI [15] was > 10 µM and the TGI [16] was > 10 µM.
With `O=S(Nc1ccccc1)c1cccc(Cl)c1` (stereo unspecified) the TGI [1] was > 100 µM, the TGI [2] was > 100 µM and the TGI [3] was > 100 µM. For the same molecule, the TGI [4] was > 100 µM, the TGI [18] was > 100 µM and the TGI [9] was > 100 µM. For the same molecule, the TGI [10] was > 100 µM, the TGI [11] was > 100 µM and the TGI [12] was > 100 µM. The TGI [13] was > 100 µM, the TGI [15] was > 100 µM and the TGI [16] was > 100 µM. For the same molecule, the TGI [17] was > 100 µM.
For `CCOP(=O)(OCC)C(Nc1ccc(Br)cc1)c1cccc([N+](=O)[O-])c1` (stereo unspecified), the TGI [1] was 28.3 µM, the TGI [2] was > 100 µM and the TGI [3] was 47.8 µM. It also gave a TGI [4] of 38.6 µM, a TGI [18] of 98.2 µM and a TGI [5] of 29.6 µM. The TGI [7] was 41.5 µM, the TGI [8] was > 100 µM and the TGI [9] was > 100 µM. It also gave a TGI [10] of 32.1 µM, a TGI [11] of 31.7 µM and a TGI [12] of 37 µM. For the same molecule, the TGI [13] was > 100 µM, the TGI [14] was 31.4 µM and the TGI [15] was 35.6 µM. The TGI [16] was 28.3 µM and the TGI [17] was 26 µM.
`Cn1c(O)c(C=Nc2ccccc2[N+](=O)[O-])c(=O)n(C)c1=O` was tested, and the TGI [1] was > 100 µM, the TGI [3] was > 100 µM and the TGI [4] was > 100 µM. The TGI [18] was > 100 µM, the TGI [5] was > 100 µM and the TGI [6] was > 100 µM. For the same molecule, the TGI [7] was > 100 µM, the TGI [8] was > 100 µM and the TGI [9] was > 100 µM. The TGI [10] was > 100 µM, the TGI [11] was > 100 µM and the TGI [12] was > 100 µM. For the same molecule, the TGI [13] was > 100 µM, the TGI [14] was > 100 µM and the TGI [15] was > 100 µM. The TGI [16] was > 100 µM and the TGI [17] was > 100 µM.
